Source: patent publication US9260417B2, “Therapeutic methods and compositions involving allosteric kinase inhibition” (AMITECH THERAPEUTIC SOLUTIONS, INC., priority 2010, dated 2016)

Assays:
BRAF = BRAF (Homo sapiens (Human), UniProt P15056); test: KINOMEscan competitive binding assay; details: 10 uM
CDK11 = CDK11 (Homo sapiens (Human), UniProt Q9BWU1); test: KINOMEscan competitive binding assay; details: 10 uM
CSF1R = CSF1R (Homo sapiens (Human), UniProt P07333); test: KINOMEscan competitive binding assay; details: 10 uM
FGFR2 = FGFR2 (Homo sapiens (Human), UniProt P21802); test: KINOMEscan competitive binding assay; details: 10 uM
PIM1 = PIM1 (Homo sapiens (Human), UniProt P11309); test: KINOMEscan competitive binding assay; details: 10 uM
PRKD1 = PRKD1 (Homo sapiens (Human), UniProt Q15139); test: KINOMEscan competitive binding assay; details: 10 uM
B-RAF (V600E) = test: ERK phosphorylation in 1205Lu melanoma cells expressing B-RAF V600E; format: cell-based, human; details: 10 μM, 1 h
[1] = system: XPA-1-RFP pancreatic tumor xenografts; test: Orthotopic pancreatic carcinoma model; format: in vivo, mice; details: 50 mg/kg
Description: Drug treatments were started 3 days after surgical orthotopic implantation (SOI) of XPA1-RFP tumors and tumor progression was monitored every 3 days by whole animal imaging. Scale bar=10 mm. […] Tumor surface area was calculated by adding the total pixels of both the ventral and lateral images of the tumor. *p=0.034. (FIG. 5C) Average body weight of the mice measured each day of whole animal imaging described in FIGS. 5A and 5B above. (FIG. 5D) Total weights of resected primary tumors on day 15 post (SOI), *p=0.022. (FIG. 5E) Representative fluorescent images of endothelial GFP expression (GFP expression driven by the Nestin promoter) within the XPA1-RFP tumors after resection. Images taken 15 days post SOI. Scale bar=200 μm. (FIG. 5F) Plot of tumor vessel density from images acquired as in FIG. 5E. Blood vessels imaged as in 5E were converted to length (mm) and normalized to the tumor volume (mm^3), *p=0.01.
Orthotopic human pancreatic cancer xenografts from the pancreatic cancer cell line XPA1-RFP were established in nude mice by surgical orthotopic implantation (SOI). Briefly, subcutaneous XPA1-RFP tumors in the exponential growth phase were harvested and sectioned into 1 mm^3 pieces in serum-free RPMI medium. Mice were anesthetized using 50% ketamine, 38% xylazine and 12% agepromazine maleate injected intramuscularly at a dose of 2 μl/g, and their abdominal wall was sterilized with alcohol. A small incision was then made in the right pararectal line through the skin and peritoneum. The body of the pancreas was exposed and a 1 mm^3 tumor fragment was sutured to the pancreas using a single 8-0 nylon surgical suture (Davis-Geck, Inc. Manati, Puerto Rico). The pancreas was then returned to the abdomen and the peritoneum and skin were closed in two layers using 6-0 vicryl surgical suture.
At day 3 after SOL the animals began treatment with twice-daily IP injections of either compound, 6 (50 mg/kg dose in 200 μl total volume), or vehicle control at 12 hour intervals. […] At day 12 post-SOI the animals were sacrificed and their tumors were excised, weighed, and measured in 3 dimensions in order to calculate tumor volume. The tumor volume was calculated with the formula: volume=height×width×length×0.52. […] The total vessel length for each tumor was measured using Image-J software and converted to vessel density by dividing total tumor vessel length by tumor volume. […]
RFP expressing XPA-1 pancreatic tumor xenografts were implanted into the pancreas of Nestin GFP-mice enabling detection of both developing blood vessels (GFP) and primary tumor (RFP). […] Tumor growth was monitored non-invasively by whole body imaging using the Olympus OV100 Small Animal Imaging System to detect the RFP signal from the tumor implant within the pancreas.

tumor lines = test: Tumor cell viability, summary over tumor lines; format: cell-based; details: summary of Table 5
[2] = system: MDA-MB231 human breast carcinoma cells; test: MDA-MB231 orthotopic breast cancer xenograft; format: in vivo, mice
Description: Tumors were generated by injection of MDA-MB231 human breast carcinoma cells (1×10^6 tumor cells in 50 μl of sterile PBS) into the mammary fatpad of 6-8 week old female Nu/Nu mice. Tumors were allowed to grow and the mice were randomized into two groups with an average tumor volume of 100 mm^3. […] Tumor growth was monitored by measuring the tumor length and width with precision calipers every 2 days and calculating tumor volume using the following formula: Tumor volume=0.5*(length)*(width)^2, provided the smaller measurement was utilized as the length. […] Scale bar 20 μM. […] Cells were lysed in RIPA buffer (50 mM Tris pH 7.4, 100 mM NaCl, 0.1% SDS, 1.0% TritonX-100, 1% deoxycholate) supplemented with complete protease inhibitor mixture (Roche), 50 mM NaF, and 1 mM Na3VO4 and centrifuged at 13,000 g for 10 min at 4° C. Protein concentration was determined by BCA assay and 30 μg of protein was loaded per lane of 10% SDS-PAGE gel. Immunohistochemistry in FIG. 18A was performed according to the manufacturer's recommendations (Vector Labs), on […] sections of paraffin-embedded tumors from the orthotopic xenograft breast cancer mouse model (MDA-MB231). For phospho-S338 CRAF immunohistochemistry, antigen retrieval was performed in citrate buffer pH 6.0 at 95° C. for 20 min. […]

CSc1nc(N)cc(Oc2ccc(-c3nnc(Nc4cccc(C(F)(F)F)c4)[nH]3)cc2)n1 [Compound 6]
% Control (BRAF): 91%
% Control (CDK11): 32%
% Control (CSF1R): 51%
% Control (FGFR2): 100%
% Control (PIM1): 96%
% Control (PRKD1): 100%
phosphorylation of ERK T202/Y204 in cells expressing constitutively active B-RAF (V600E) (B-RAF (V600E)): completely disrupted
body weight ([1]; bid): no weight loss
mean vessel length/tumor volume ([1]; bid (vehicle 2.5)): 0.2 mm/mm^3
tumor growth ([1]; bid, from day 3, 12 days post SOI): completely suppressed
average tumor weight ([1]; resected on day 15, bid (vehicle 74.1 mg)): 26.7 mg
times more potent than sorafenib (tumor lines): 15-100 times
EC50 (tumor lines; read-out: EC50 in wide range of tumor lines): 100 to 600 nM
breast tumor growth compared to vehicle ([2]; 50 mg/kg, bid, ip): suppresses tumor growth
phosphorylation of CRAF S338 in breast tumors ([2]; three consecutive days, tumors resected 1 h after final dose): clearly inhibits phosphorylation of S338
